Results published in patent US6022495A, “Photochromic benzopyrano-fused naphthopyrans” (Transitions Optical, Inc., priority 1998, dated 2000).

Columns and labels:
[1] = Visible lambda max of the activated form in polymer test squares (Varian Cary 3 UV-Visible spectrophotometer); assay type: physicochemical; conditions: activated (colored) form in test square of BPA 2EO DMA / poly(ethylene glycol) 600 dimethacrylate, 1.5×10^-3 molal
Procedure: (§1) Testing was done with the photochromic compounds prepared in Examples 1-11 in the following manner. A quantity of each photochromic compound calculated to yield a 1.5×10^-3 molal solution was added to a flask containing 50 grams of a monomer blend of 4 parts ethoxylated bisphenol A dimethacrylate (BPA 2EO DMA), 1 part poly(ethylene glycol) 600 dimethacrylate, and 0.033 weight percent 2,2'-azobis(2-methyl propionitrile) (AIBN). Each photochromic compound was dissolved into the monomer blend by stirring and gentle heating. After a clear solution was obtained, it was poured into a flat sheet mold having the interior dimensions of 2.2 mm×6 inches (15.24 cm)×6 inches (15.24 cm). The mold was sealed and placed in a horizontal air flow, programmable oven programmed to increase the temperature from 40° C. to 95° C. over […], hold the temperature at 95° C. for 3 hours, lower it to 60° C. over a 2 hour interval and then hold at 60° C. for 16 hours. After the mold was opened, the polymer sheet was cut using a diamond blade saw into 2 inch (5.1 centimeters) test squares.
The Δ OD/min, which represents the sensitivity of the photochromic compound's response to UV light, was measured over the first five (5) seconds of UV exposure, then expressed on a per minute basis. The saturation optical density (Δ OD@ Saturation) was taken under identical conditions as the Δ OD/min, except UV exposure was continued for 15 minutes. The lambda max (Vis) is the wavelength in nanometers (nm) in the visible spectrum at which the maximum absorption of the activated (colored) form of the photochromic compound in a test square occurs. The lambda max (Vis) wavelength was determined by testing the photochromic test square polymerizates of Part A in a Varian Cary 3 UV-Visible spectrophotometer. The Bleach Rate (T 1/2) is the time interval in seconds for the absorbance of the activated form of the photochromic compound in the test squares to reach one half the highest absorbance at room temperature (72° F., 22.20C.) after removal of the source of activating light.

[2] = Photochromic response of polymer test squares on an optical bench; assay type: physicochemical; conditions: for ΔOD @ Saturation: UV exposure continued for 15 minutes; for ΔOD @ Saturation / Sensitivity ΔOD/min: 72° F. (22.2° C.); for Sensitivity ΔOD/min: first five (5) seconds of UV exposure, expressed per minute
Procedure: as §1
The photochromic test squares prepared in Part A were tested for photochromic response on an optical bench. Prior to testing on the optical bench, the photochromic test squares were exposed to 365 nanometer ultraviolet light for about 15 minutes to activate the photochromic compounds and then placed in a 76° C. oven for about 15 minutes to bleach or inactivate the photochromic compounds. The test squares were then cooled to room temperature, exposed to fluorescent room lighting for at least 2 hours and then kept covered for at least 2 hours prior to testing on an optical bench maintained at 72° F. (22.2° C.). The bench was fitted with a 150 watt Xenon arc lamp, a remote controlled shutter, a copper sulfate bath acting as a heat sink for the arc lamp, a Schott WG-320 nm cut-off filter which removes short wavelength radiation; neutral density filter(s) and a sample holder in which the square to be tested was inserted. The power output of the optical bench, i.e., the dosage of light that the sample lens would be exposed to, was calibrated with a photochromic test square used as a reference standard. […] The UV-A detector was placed into the sample holder and the light output was measured. Adjustments to the power output were made by increasing or decreasing the lamp wattage or by adding or removing neutral density filters in the light path.
A monitoring, collimated beam of light from a tungsten lamp was passed through the square at a small angle (approximately […]) normal to the square. After passing through the square, the light from the tungsten lamp was directed to a detector through Spectral Energy Corp. GM-200 monochromator set at the previously determined visible lambda max of the photochromic compound being measured. The output signals from the detector were processed by a radiometer.
Change in optical density (ΔOD) was determined by inserting a test square in the bleached state into the sample holder, adjusting the transmittance scale to 100%, opening the shutter from the Xenon lamp to provide ultraviolet radiation to change the test square from the bleached state to an activated (i.e., darkened) state, measuring the transmittance in the activated state, and calculating the change in optical density according to the formula: ΔOD=log(100/% Ta), where % Ta is the percent transmittance in the activated state and the logarithm is to the base 10.
The Δ OD/min, which represents the sensitivity of the photochromic compound's response to UV light, was measured over the first five (5) seconds of UV exposure, then expressed on a per minute basis. The saturation optical density (Δ OD@ Saturation) was taken under identical conditions as the Δ OD/min, except UV exposure was continued for 15 minutes. […]

Compound	lambda max (Vis) [1] [nanometers]	ΔOD @ Saturation [2]	Sensitivity ΔOD/min [2]	Bleach Rate T 1/2 ([2]; time for absorbance of activated form to reach one half the highest absorbance at room temperature (72° F.) after removal of activating light) [s]
O=c1oc2ccccc2c2c1c1c(c3ccccc32)OC(c2ccccc2)(c2ccccc2)C=C1 [Compound 10, 6,6-diphenyl-9-oxo-6,9-dihydro[1]benzopyrano[3',4':3,4]naphtho(1,2-b)pyran]	484	0.26	0.69 ΔOD/min	19
O=c1oc2c3ccc4c(c3ccc2c2ccccc12)C=CC(c1ccccc1)(c1ccccc1)O4 [Compound 11, 3,3-diphenyl-8-oxo-3,8-dihydro[2]benzopyrano[3',4':5,6]naphtho(2,1-b)pyran]	466	0.02	0.12 ΔOD/min	
